From US11732029B2, “Methods and compositions for the treatment of wounds” (The University of Chicago, priority 2017, dated 2023)
Entries after “also recorded” stand apart in the source; their conditions may differ.

T1: VEGF-A145 (Homo sapiens, UniProt P15692)
T1 construct: All GFs and chemokines were purchased in their mature forms; purchased R & D Systems
T1 sequence (P15692 27-171 isoform P15692-6 limits assumed): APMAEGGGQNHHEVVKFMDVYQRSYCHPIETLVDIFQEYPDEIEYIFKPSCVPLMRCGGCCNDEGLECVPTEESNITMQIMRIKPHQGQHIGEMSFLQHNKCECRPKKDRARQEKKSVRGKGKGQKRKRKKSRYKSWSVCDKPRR

T2: VEGF-A165 (Homo sapiens, UniProt P15692)
T2 construct: All growth factors (GFs) and chemokines were purchased in their mature forms; purchased PeproTech; host or cells: Escherichia coli
T2 sequence (P15692 27-191 isoform P15692-4 limits assumed): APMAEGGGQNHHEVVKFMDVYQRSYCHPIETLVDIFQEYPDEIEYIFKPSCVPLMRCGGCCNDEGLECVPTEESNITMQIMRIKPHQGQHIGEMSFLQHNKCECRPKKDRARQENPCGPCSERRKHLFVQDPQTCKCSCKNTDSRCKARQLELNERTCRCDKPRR

T3: PlGF-2 (Homo sapiens, UniProt P49763)
T3 sequence (P49763 19-170 isoform P49763-3 limits assumed): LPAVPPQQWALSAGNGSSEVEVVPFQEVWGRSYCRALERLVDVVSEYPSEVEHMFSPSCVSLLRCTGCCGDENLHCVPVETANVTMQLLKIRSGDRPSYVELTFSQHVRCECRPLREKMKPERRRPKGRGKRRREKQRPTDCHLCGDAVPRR


Legend:
VEGF-A145 = target: T1, VEGF-A145; test: vWF binding to recombinant VEGF-A isoforms (ELISA); conditions: plate coated with 50 nM vWF domains, 1 μg/mL VEGF-A, vs BSA
Experimental: (§1) ELISA was performed as previously reported1. In brief, ELISA plates (med binding: Greiner Bio-One) were coated with 50 nM BSA (GE Healthcare), pro-peptide containing recombinant vWF (Sino Biological), plasma-derived vWF (EMD Millipore), recombinant human vWF A1 domain (U-Protein Express), recombinant human vWF A2 domain (R & D systems), recombinant human vWF A3 domain (U-Protein Express), vWF A1 HBD peptide or scrambled/mutated HBD peptide (all peptides were synthesized by Genscript). After blocking with 2% BSA solution containing PBS-T, 1 μg/mL of recombinant human VEGF-A121 (PeproTech), recombinant human VEGF-A145 (R & D Systems), or recombinant human VEGF-A165 (PeproTech) was added. Bound VEGF-A was detected with 1 μg/mL of mouse anti-human VEGF-A antibody (clone: 26503, R & D systems). After 60 min of incubation, horseradish peroxidase (HRP) conjugated goat anti-mouse antibody (1:2000 dilution, Dako) was added and incubated for another 60 min. Color development and the absorbance measurement were done as described above.

VEGF-A165 [1] = target: T2, VEGF-A165; test: vWF binding to recombinant VEGF-A isoforms (ELISA); conditions: plate coated with 50 nM vWF domains, 1 μg/mL VEGF-A, vs BSA
Experimental: as §1

[2] = Heparin binding to synthesized laminin peptides (ELISA); set-up: key to Interaction with Heparin: ++ indicates high affinities; + indicates medium/low affinities; conditions: for binding to heparin: ELISA, peptide-coated plate, 10 μg/mL biotinylated heparin; for Interaction with Heparin: summary Table 2
Experimental: (§2) ELISA tests were performed as described above. In brief, ELISA plates were coated with 1 μg/mL of laminin alpha 3 LG domain recombinant protein, laminin alpha 4 LG domain recombinant protein (R&D systems), laminin alpha 5 LG domain recombinant protein (LD BioPharma), or laminin peptide (sequences are described in Table 1, chemically synthesized by Genscript) in PBS for 2 hrs at 37° C. 1 μg/mL of BSA served as non-binding protein control. After blocking with 2% BSA PBS-0.05% Tween 20 (PBS-T) solution, 1 μg/mL of the recombinant human proteins (VEGF-A121, VEGF-A165, PlGF-1, PlGF-2, PDGF-BB or FGF-2) or 10 μg/mL of biotinylated heparin (Sigma-Aldrich) were added. Bound GF was detected with biotinylated antibodies for human VEGF, PlGF, PDGF-BB, or FGF-2 (R&D Systems). The antibodies were detected by streptavidin-HRP (R&D Systems).

PDGF-BB = target: T4, PDGF-BB (Homo sapiens, UniProt P01127); test: GF binding to recombinant laminin LG domain protein and synthesized laminin HBD peptides (ELISA); conditions: plate coated with LG domain protein or peptide, 1 μg/mL GF, vs BSA-coated wells
T4 construct: All growth factors (GFs) and chemokines were purchased in their mature forms; purchased PeproTech; host or cells: Escherichia coli
Experimental: as §2

VEGF-A165 [3] = target: T2, VEGF-A165; test: as above; conditions: plate coated with LG domain protein or peptide, 1 μg/mL GF, vs BSA-coated wells
Experimental: as §2

GFs = test: GF binding to synthesized laminin peptides (ELISA), all tested GFs together; set-up: species or system human; key to Interaction with GFs: ++ indicates high affinities; + indicates medium/low affinities; conditions: for Interaction with GFs: summary Table 2; for binding to the tested GFs: ELISA, statement for all tested GFs (VEGF-A, PlGF, PDGF-BB, FGF-2)
Experimental: as §2

[4] = tested on: syndecan-1, syndecan-2, syndecan-3, syndecan-4; test: Recombinant syndecan binding to synthesized laminin HBD peptides (ELISA); set-up: species or system human; key to Interaction with Syndecans: ++ indicates high affinities; + indicates medium/low affinities; conditions: for binding to recombinant syndecans (syndecan 1-4): ELISA, peptide-coated plate, 1 μg/mL syndecan; for Interaction with Syndecans: summary Table 2
Experimental: ELISA tests were performed as described above. In brief, ELISA plates were coated with 1 μg/mL laminin peptide (sequences are described in Table 1, chemically synthesized by Genscript) in PBS for 2 hrs at 37° C. 1 μg/mL of BSA served as non-binding protein control. After blocking with 2% BSA PBS-T solution, 1 μg/mL of the recombinant human syndecan-1, syndecan-2, syndecan-3, syndecan-4 (all syndecan proteins are histidine-tagged; SinoBiological) were added. Bound GF was detected with anti-histidine tag antibody (1:1000 dilution, BioLegend).

human lung fibroblasts = test: Cell adhesion assay, fibroblasts on laminin peptide coated plates; format: cell-based; set-up: key to Cell adhesion Fibroblasts: ++ indicates high affinities; + indicates medium/low affinities; conditions: for fibroblast attachment: peptide-coated plates, 30 min at 37° C., without EDTA; for Cell adhesion Fibroblasts: summary Table 2
Experimental: (§3) 96-well plates (non-tissue culture treated, Greiner Bio-one) were pre-coated with 1 μg/mL with laminin HBD peptides in PBS for 2 hrs at 37° C., followed by blocking with 2% BSA PBS for 1 h at RT. Cell adhesion assays were performed using human lung fibroblasts (Lonza) in FGM-2 medium (Lonza) or human umbilical vein endothelial cells (HUVEC; Lonza) in EGM-2 medium (Lonza) supplemented with 1% fetal bovine serum (FBS) and […] VEGF-A165, with or without 5 mM EDTA (Sigma-Aldrich). Cells were plated at 3000 cells/well on laminin peptide pre-coated plates and incubated for 30 min at 37° C., 5% CO2. Then, the medium was removed, and wells were quickly washed three times with PBS. Cell numbers were quantified using a CyQUANT assay, according to the manufacturer's instructions (Invitrogen). All cell lines were checked for mycoplasma contamination and used in passages from 5 to 8.

FGF-2 = FGF-2 (Homo sapiens, UniProt P09038); test: GF binding to recombinant laminin LG domain protein and synthesized laminin HBD peptides (ELISA); set-up: All growth factors (GFs) and chemokines were purchased in their mature forms; purchased PeproTech; host or cells: Escherichia coli; conditions: plate coated with LG domain protein or peptide, 1 μg/mL GF, vs BSA-coated wells
Experimental: as §2

PlGF-2 = target: T3, PlGF-2; test: as above; set-up: All growth factors (GFs) and chemokines were purchased in their mature forms; purchased PeproTech; host or cells: Escherichia coli; conditions: plate coated with LG domain protein or peptide, 1 μg/mL GF, vs BSA-coated wells
Experimental: as §2

HUVEC = test: Cell adhesion assay, HUVEC on laminin peptide coated plates; format: cell-based, human; set-up: key to Cell adhesion HUVECs: ++ indicates high affinities; + indicates medium/low affinities; conditions: for HUVEC attachment: peptide-coated plates, 30 min at 37° C., without EDTA; for Cell adhesion HUVECs: summary Table 2
Experimental: as §3

Chain of FGF-2 (P09038 143-288): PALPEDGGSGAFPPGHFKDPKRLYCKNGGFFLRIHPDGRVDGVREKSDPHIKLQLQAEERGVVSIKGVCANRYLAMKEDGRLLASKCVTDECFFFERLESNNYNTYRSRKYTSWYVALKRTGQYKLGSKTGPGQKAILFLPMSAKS
T4 sequence (P01127 82-190 limits assumed): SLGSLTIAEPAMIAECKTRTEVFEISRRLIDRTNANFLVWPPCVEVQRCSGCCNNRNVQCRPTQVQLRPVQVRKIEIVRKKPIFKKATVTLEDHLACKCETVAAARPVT

Molecule	binding to VEGF-A145 (VEGF-A145)	binding to VEGF-A165 (VEGF-A165 [1])	binding to heparin [2]	Interaction with Heparin [2]	binding to PDGF-BB (PDGF-BB)	binding to VEGF-A165 (VEGF-A165 [3])	Interaction with GFs (GFs)	binding to recombinant syndecans (syndecan 1-4) [4]	Interaction with Syndecans [4]	fibroblast attachment (human lung fibroblasts)	Cell adhesion Fibroblasts (human lung fibroblasts)	binding to FGF-2 (FGF-2)	binding to PlGF-2 (PlGF-2)	HUVEC attachment (HUVEC)	Cell adhesion HUVECs (HUVEC)	binding to the tested GFs (GFs)
A3: recombinant human vWF A3 domain (U-Protein Express)	no binding	no binding	–	–	–	–	–	–	–	–	–	–	–	–	–	–
RQRSRPGRWHKVSVRWEKNR [α53417-3436, laminin α5 chain LG4-derived peptide, 20 aa]	–	–	bound to heparin	++	bound	bound	++	significant binding	++	enhancement of fibroblast attachment	+	bound	bound	–	–	–
TLFLAHGRLVYMFNVGHKKLKIR [α41521-1543, laminin α4 chain LG4-derived peptide, 23 aa]	–	–	bound to heparin	++	not statistically significant	–	+	significant binding	++	enhancement of fibroblast attachment	+	–	–	promoted HUVEC attachment	+	–
TPGLGPRGLQATARKASRRSRQPARHPACML [α53300-3330, laminin α5 chain linker peptide, 31 aa]	–	–	bound to heparin	++	–	preferentially bound	+	significant binding	++	–	–	–	preferentially bound	–	–	–
pro-peptide-containing recombinant vWF: immature, pro-peptide containing recombinant vWF (Sino Biological)	–	bind	–	–	–	–	–	–	–	–	–	–	–	–	–	–
KNSFMALYLSKGR [α33031-3043, laminin α3 chain LG4-derived peptide, 13 aa]	–	–	non-heparin binding	–	–	bound	+	weak binding	+	enhancement of fibroblast attachment	+	–	–	–	–	–
PLFLLHKKGKNLSKPKASQNKKGGKSK [α41408-1434, laminin α4 chain linker peptide, 27 aa]	–	–	bound to heparin	++	bound	bound	++	significant binding	++	–	–	bound	bound	–	–	–
PPFLMLLKGSTRFNKTKTFR [α32932-2951, laminin α3 chain LG3-LG4 linker peptide, 20 aa]	–	–	bound to heparin	++	–	preferentially bound	+	weak binding	+	enhancement of fibroblast attachment	+	preferentially bound	–	promoted HUVEC attachment	+	–
TLPDVGLELEVR [α53539-3550, laminin α5 chain LG5-derived peptide, 12 aa]	–	–	did not show binding to heparin; also recorded: non-heparin binding	–	–	–	+	did not show binding	–	–	–	–	–	–	–	significantly bound to all tested GFs
ARKASRRSRQPARH [α53312-3325, laminin α5 chain linker peptide, 14 aa]	–	–	did not bind to heparin	–	–	–	–	weak binding	+	–	–	–	–	–	–	did not show particular binding to any tested GF
vWF A2: recombinant human vWF A2 domain (R & D systems) (protein) DVAFVLEGSDKIGEADFNRSKEFMEEVIQRMDVGQDSIHVTVLQYSYMVTVEYPFSEAQSKGDILQRVREIRYQGGNRTNTGLALRYLSDHSFLVSQGDREQAPNLVYMVTGNPASDEIKRLPGDIQVVPIGVGPNANVQELERIGWPNAPILIQDFETLPREAPDLV	no binding	no binding	–	–	–	–	–	–	–	–	–	–	–	–	–	–
